Reference: DBAASP
In brackets after ≈: the same amount, converted by molar mass.

What was measured:
Assay in all cases: ≥ marks a high value that may be exact or a test limit, other limits are often not marked, values filed in µg/mL are converted to µM
Escherichia coli TOP 10 = system: Escherichia coli TOP 10
Bacillus cereus = system: Bacillus cereus
[1] = system: Batrachochytrium dendrobatidis
Escherichia coli = system: Escherichia coli
Leuconostoc lactis = system: Leuconostoc lactis
Listeria innocua = system: Listeria innocua
Micrococcus luteus = system: Micrococcus luteus
Pasteurella multocida = system: Pasteurella multocida
Staphylococcus aureus = system: Staphylococcus aureus
[2] = system: Staphylococcus epidermidis
Streptococcus uberis = system: Streptococcus uberis
[3] = system: Bacillus subtilis ATCC 6633
[4] = system: Escherichia coli ATCC 25922
[5] = system: Klebsiella pneumoniae ATCC 10031
[6] = system: Micrococcus luteus ATCC 10240
[7] = system: Pseudomonas aeruginosa ATCC 27853
[8] = system: Salmonella enterica subsp. enterica serovar Typhimurium ATCC 14028
[9] = system: Shigella dysenteriae ATCC 9752
[10] = system: Staphylococcus aureus ATCC 6538P
[11] = system: Staphylococcus aureus TK784
[12] = system: Staphylococcus epidermidis ATCC 12228
Escherichia coli D21 = system: Escherichia coli D21
[13] = system: Staphylococcus aureus ATCC 6538
[14] = system: Staphylococcus aureus ATCC 12600
[15] = system: Streptococcus mutans ATCC 25175
[16] = system: Bacillus subtilis KCTC 1918
[17] = system: Candida albicans TIMM 1768
[18] = system: Escherichia coli KCTC 1682
[19] = system: Pseudomonas aeruginosa KCTC 1637
[20] = system: Salmonella typhimurium KCTC 1926
[21] = system: Staphylococcus aureus KCTC 1621
[22] = system: Trichosporon beigelii KCTC 7707

SMILES | MIC [3] | MIC [4] | MIC [5] | MIC [6] | MIC [7] | MIC [8] | MIC [9] | MIC [10] | MIC [11] | MIC [12] | also measured
CC[C@H](C)[C@H](NC(=O)[C@H](CO)NC(=O)[C@H](CCCN=C(N)N)NC(=O)[C@@H](NC(=O)[C@H](CS)NC(=O)[C@H](CO)NC(=O)[C@@H]1CCCN1C(=O)[C@H](CC(C)C)NC(=O)[C@H](Cc1ccccc1)NC(=O)[C@H](CCCN=C(N)N)NC(=O)[C@@H](N)CCCCN)C(C)C)C(=O)N[C@@H](CCC(N)=O)C(=O)N[C@@H](CC(N)=O)C(=O)N[C@@H](CC(C)C)C(=O)N[C@@H](CC(=O)O)C(=O)N[C@@H](CC(=O)O)C(=O)N[C@@H](C)C(=O)N[C@@H](CC(C)C)C(=O)N1CCC[C@H]1C(=O)N[C@H](C(=O)N1CCC[C@H]1C(=O)N[C@@H](CCC(=O)O)C(=O)N[C@@H](CCC(=O)O)C(=O)N[C@@H](Cc1ccccc1)C(N)=O)[C@@H](C)O [KRFLPSCVRSIQNLDDALPTPEEF] |  |  |  |  |  |  |  |  |  |  | MIC (Escherichia coli TOP 10): ≥ 36 µM
CC[C@H](C)[C@H](NC(=O)[C@H](CO)NC(=O)CNC(=O)[C@H](CC(C)C)NC(=O)[C@@H](NC(=O)CNC(=O)[C@H](Cc1ccccc1)NC(=O)[C@H](CC(C)C)NC(=O)CN)C(C)C)C(=O)N[C@@H](C)C(=O)N[C@@H](CCCCN)C(=O)N[C@@H](Cc1cnc[nH]1)C(=O)N[C@H](C(=O)N[C@@H](CC(C)C)C(=O)N1CCC[C@H]1C(=O)N[C@@H](Cc1cnc[nH]1)C(=O)N[C@H](C(=O)N[C@H](C(=O)N1CCC[C@H]1C(=O)N[C@H](C(=O)N[C@H](C(=O)N[C@@H](C)C(=O)N[C@@H](CCC(=O)O)C(=O)N[C@@H](CCCCN)C(=O)N[C@@H](CC(C)C)C(N)=O)[C@@H](C)CC)C(C)C)C(C)C)C(C)C)C(C)C [GLFGVLGSIAKHVLPHVVPVIAEKL] |  |  |  |  |  |  |  |  |  |  | MIC (Bacillus cereus): ≥ 38.5 µM; MIC [1]: ≥ 35.4 µM; MIC (Escherichia coli): > 38.5 µM; MIC (Leuconostoc lactis): 4.63 µM (≈ 12 µg/mL); MIC (Listeria innocua): 19.3 µM (≈ 50 µg/mL); MIC (Micrococcus luteus): 19.3 µM (≈ 50 µg/mL); MIC (Pasteurella multocida): 19.3 µM (≈ 50 µg/mL); MIC (Staphylococcus aureus): 4.63 µM (≈ 12 µg/mL); MIC [2]: 9.64 µM (≈ 25 µg/mL); MIC (Streptococcus uberis): 19.3 µM (≈ 50 µg/mL)
CC(C)C[C@H](NC(=O)[C@H](Cc1c[nH]c2ccccc12)NC(=O)[C@H](CCCCN)NC(=O)[C@H](CC(C)C)NC(=O)[C@H](CC(C)C)NC(=O)[C@H](CCCCN)NC(=O)[C@H](CCCCN)NC(=O)[C@H](CC(C)C)NC(=O)[C@@H](N)CC(C)C)C(=O)N[C@@H](CCCCN)C(=O)N[C@@H](CCCCN)C(N)=O [LLKKLLKWLKK] | 2.84 µM (≈ 4 µg/mL) | 2.84 µM (≈ 4 µg/mL) | 2.84 µM (≈ 4 µg/mL) | 2.84 µM (≈ 4 µg/mL) | 5.67 µM (≈ 7.99 µg/mL) | 2.84 µM (≈ 4 µg/mL) | 2.84 µM (≈ 4 µg/mL) | 1.42 µM (≈ 2 µg/mL) | 11.3 µM (≈ 16 µg/mL) | 2.84 µM (≈ 4 µg/mL) | 
CC[C@H](C)[C@H](N)C(=O)N[C@@H](CCCCN)C(=O)N[C@@H](C)C(=O)N[C@@H](CC(C)C)C(=O)N[C@@H](CC(C)C)C(=O)N[C@@H](C)C(=O)N[C@@H](CC(C)C)C(=O)N1CCC[C@H]1C(=O)N[C@@H](CCCCN)C(=O)N[C@@H](CC(C)C)C(=O)N[C@@H](C)C(=O)N[C@@H](CCCCN)C(=O)N[C@@H](CCCCN)C(=O)N[C@H](C(=O)N[C@@H](C)C(=O)N[C@@H](CCCCN)C(=O)N[C@@H](CCCCN)C(=O)N[C@@H](Cc1ccccc1)C(=O)N[C@@H](CC(C)C)C(=O)N[C@@H](CCCCN)C(N)=O)[C@@H](C)CC [IKALLALPKLAKKIAKKFLK] |  |  |  |  |  |  |  |  |  |  | MIC (Escherichia coli TOP 10): 22.4 µM (≈ 50 µg/mL)
CC(C)C[C@H](NC(=O)[C@H](Cc1c[nH]c2ccccc12)NC(=O)[C@H](CCCCN)NC(=O)[C@H](CCCCN)NC(=O)[C@H](CC(C)C)NC(=O)[C@H](Cc1c[nH]c2ccccc12)NC(=O)[C@@H](N)CCCCN)C(N)=O [KWLKKWL] | ≥ 79.9 µM | > 79.9 µM | ≥ 79.9 µM | ≥ 79.9 µM | > 79.9 µM | > 79.9 µM | ≥ 79.9 µM | ≥ 79.9 µM | ≥ 79.9 µM | > 79.9 µM | 
CC(C)C[C@H](NC(=O)[C@H](Cc1c[nH]c2ccccc12)NC(=O)[C@H](CCCCN)NC(=O)[C@H](CCCCN)NC(=O)[C@H](CC(C)C)NC(=O)[C@H](Cc1c[nH]c2ccccc12)NC(=O)[C@H](CCCCN)NC(=O)[C@@H](N)CCCCN)C(=O)N[C@@H](CCCCN)C(N)=O [KKWLKKWLK] | ≥ 63.6 µM | 31.8 µM (≈ 40 µg/mL) | ≥ 63.6 µM | ≥ 63.6 µM | 63.6 µM (≈ 79.9 µg/mL) | > 63.6 µM | ≥ 63.6 µM | 31.8 µM (≈ 40 µg/mL) | ≥ 63.6 µM | > 63.6 µM | 
CC[C@H](C)[C@H](NC(=O)[C@H](CCCCN)NC(=O)[C@H](CCCN=C(N)N)NC(=O)[C@@H](NC(=O)[C@H](CC(C)C)NC(=O)[C@H](CCC(N)=O)NC(=O)[C@@H](NC(=O)[C@H](Cc1ccc(O)cc1)NC(=O)[C@H](CCC(N)=O)NC(=O)[C@@H]1CCCN1C(=O)[C@@H](NC(=O)[C@H](CC(C)C)NC(=O)[C@@H](NC(=O)[C@H](Cc1c[nH]c2ccccc12)NC(=O)[C@H](CC(C)C)NC(=O)[C@H](CO)NC(=O)[C@@H]1CCCN1C(=O)[C@H](Cc1cnc[nH]1)NC(=O)[C@@H](N)Cc1ccccc1)C(C)C)[C@@H](C)CC)[C@@H](C)CC)[C@@H](C)CC)C(=O)N[C@@H](CC(C)C)C(=O)N[C@@H](CCCCN)C(=O)N[C@@H](CO)C(=O)NCC(=O)O [FHPSLWVLIPQYIQLIRKILKSG] |  | > 50 µM |  |  |  |  |  |  |  |  | MIC (Escherichia coli D21): ≥ 50 µM; MIC [13]: 35.4 µM (≈ 97.2 µg/mL)
CC[C@H](C)[C@H](NC(=O)[C@H](C)NC(=O)CNC(=O)[C@H](Cc1ccccc1)NC(=O)[C@H](CC(C)C)NC(=O)CN)C(=O)N[C@@H](C)C(=O)NCC(=O)N[C@@H](Cc1ccccc1)C(=O)N[C@H](C(=O)N[C@@H](CCCCN)C(=O)NCC(=O)NCC(=O)N[C@@H](Cc1c[nH]c2ccccc12)C(=O)N[C@@H](CCC(N)=O)C(=O)NCC(=O)N[C@@H](CCSC)C(=O)N[C@H](C(=O)N[C@@H](CCCCN)C(=O)NCC(N)=O)C(C)C)[C@@H](C)CC [GLFGAIAGFIKGGWQGMVKG] |  | 15.7 µM (≈ 31.3 µg/mL) |  |  | > 62.7 µM |  |  |  |  |  | MIC [14]: 15.7 µM (≈ 31.3 µg/mL); MIC [15]: 11.1 µM (≈ 22.1 µg/mL)
CC(C)C[C@H](NC(=O)[C@H](CCCCN)NC(=O)[C@H](CCCCN)NC(=O)[C@H](Cc1c[nH]c2ccccc12)NC(=O)[C@@H](N)CCCCN)C(=O)N[C@@H](CC(C)C)C(=O)N[C@@H](CCCCN)C(=O)N[C@@H](CCCCN)C(=O)N1CCC[C@H]1C(=O)N[C@@H](CC(C)C)C(=O)N[C@@H](CC(C)C)C(=O)N[C@@H](CCCCN)C(=O)N[C@@H](CCCCN)C(N)=O [KWKKLLKKPLLKK] |  |  |  |  |  |  |  |  |  |  | MIC [16]: 6.25 µM (≈ 10.3 µg/mL); MIC [17]: 25 µM (≈ 41.3 µg/mL); MIC [18]: 12.5 µM (≈ 20.6 µg/mL); MIC [19]: 12.5 µM (≈ 20.6 µg/mL); MIC [20]: 1.56 µM (≈ 2.57 µg/mL); MIC [21]: 12.5 µM (≈ 20.6 µg/mL); MIC [22]: 25 µM (≈ 41.3 µg/mL)
